Patent publication US20190388389A1, “METHODS AND COMPOSITIONS OF CARNOSOL FOR INHIBITING UVB-INDUCED SKIN DAMAGE” (Ohio University, priority 2017, published 2019)

Tests used:
[1] = system: intracellular ROS level in HaCaT cells; experiment: ROS measurement with CM-H2DCFDA after UVB radiation; assay type: cell-based, Human; conditions: for ROS level post-UVB: UVB 50 mJ/cm^2, 6 h, UVB alone 2.1-fold
Procedure: FIG. 2: Dose dependent effect of carnosol on UVB-induced intracellular ROS level. HaCaT cells were seeded in 96 well plate and incubated with CM-H2DCFDA dye one hour prior to UVB exposure, with or without carnosol treatment. ROS was measured at 6 h post UVB radiation with indicated concentration of carnosol treatment using ex490/em520 nm. The data represents three to five sets of independent experiments. *p<0.05 versus corresponded control group, **p<0.05 versus UV alone.
FIGS. 3A-3B: Time dependent effect of carnosol on UVB-induced intracellular ROS level. HaCaT cells were seeded in 96 well plate and CM-H2DCFDA dye was used to measure intracellular ROS level. Carnosol (20 μM) was added to cells 1 h prior to UVB exposure, and ROS level was measured at 20 min intervals post UVB. (FIG. 3A) Intracellular ROS level at 20 min intervals with or without carnosol treatment. (FIG. 3B) Statistical analysis of intracellular ROS level at 240, 480, 720 min post UVB radiation with or without carnosol (20 μM) treatment. *p<0.05 versus corresponded control group, **p<0.05 versus corresponded UV group.
UVB was generated from a Bench XX-Series UV Lamp (UVP Inc.) equipped with two 15-watt UVB tubes (UVP Inc.). The intensity of UVB was calibrated by a UVP model UVX digital radiometer (UVP Inc.) after the lamps warmed up for 5 min. For irradiating cells, the dose rate for 8 mJ/cm^2 or 50 mJ/cm^2 of UVB radiation was 0.8 or 3.8 mW/s respectively. Medium was removed before exposing the cells to UVB. After UVB radiation, fresh medium was added to the culture plates with or without drugs, and the cells were continue incubating at 37° C. with 5% CO2 until further analysis. Carnosol was disovled in DMSO and was irradiated with 50 mJ/cm^2 of UVB radiation at a dose rate of 3.8 mW/s before subjecting to cells or structure analysis using Mass Spectrum.
Carnosol (Cayman) (FIG. 1) was added to cells at indicated concentration at 1 h before exposing the cells to UVB radiation. After radiation, cells were continuously incubated with or without carnosol in the medium until further analysis.
CM-H2DCFDA (Invitrogen) was used to measure the total ROS level in cells. CM-H2DCFDA was dissolved in DMSO to a stock solution of 500 μM and diluted in PBS to final concentration of 5 μM. CM-H2DCFDA was added into cells 1 h prior to UVB exposure and the reading of fluorescence dye was recorded every 20 minutes using luminometer (Molecular devices Spectra Max M2).

NF-κB = experiment: Electrophoretic mobility shift assay (EMSA), HaCaT nuclear extract; assay type: cell-based, Human; conditions: 20 μM carnosol; for NF-κB activity induction (EMSA): UVB alone about 2.6 fold
Procedure: FIGS. 7A-7F: Carnosol inhibited UVB-induced NF-κB activation. Cells were exposed to UVB radiation in the presence or absence of carnosol. Cells were lysed at indicated time point and protein levels were measured by western blot analysis. (FIG. 7A) Western blot for IκB protein level in HaCaT cells at 2, 4 h post UVB radiation at 1, 10 or 20 μM carnosol treatment. (FIG. 7B) Western blot analysis for IκB protein level in HaCaT cells at 6 h post UVB radiation in the presence or absence of carnosol. (FIG. 7C) Western blot analysis for IκB protein level in MEF cells at 6 h post UVB radiation in the presence or absence of carnosol. (FIG. 7D) Western blot for 5276 site phosphorylation of NF-κB in HaCaT cells at 6 h post UVB with indicated carnosol concentration. (FIG. 7E) EMSA assay for HaCaT cells at 2, 4, 6 h post UVB radiation in the presence or absence of carnosol (20 μM). (FIG. 7F) Statistical analysis of the EMSA assay using two to three sets of independent experiments. *p<0.05 versus control group, **p<0.05 versus UV group at indicated time point.
A 22-bp synthetic oligonucleotide (5′-[…]-3′) [SEQ ID NO:1] containing the specific NF-κB-binding site was annealed and labeled with γ-^32P-ATP using T4 polynucleotide kinase. A DNA-binding reaction mixture of total 20 μL containing poly(dI:dC), labeled probe, binding buffer (10 mM pH 8.0 Tris HCl, 150 mM KCl, 0.5 mM EDTA, 0.1% Triton-X 100, 12.5% Glycerol and 0.2 mM DTT) and 10 jag of cell nuclear extract was incubated at room temperature for 30 min and loaded onto a 5% nondenaturing polyacrylamide gel for electrophoresis. The gel was run in 0.5×TBE buffer at 120 V, transferred to a double layer of Whatman paper and dried on a gel dryer for 45-60 mM at 76° C. The dried gel was used to expose an autoradiography film (Denville) at −80° C. and the NF-κB bound ^32P-labeled DNA was detected, and the band intensity was analyzed by Image J.

[2] = system: A431 human squamous carcinoma cell; experiment: Clonogenic assay, A431; assay type: cell-based
Procedure: FIGS. 9A-9B. Carnosol decreases A431 cancer cell progression. Squamous carcinoma cell A431 was used to determine the effect of carnosol on cancer cell progression. (FIG. 9A) Effect of carnosol on cell viability. Cells were treated upon 50 mJ/cm^2 UVB radiation with or without carnosol treatment. After 24 h, cells were collect and MTT assay was performed to determine the cell viability. *p<0.05 versus control group, **p<0.05 versus UV group at indicated time point. (FIG. 9B) Effect of carnosol on clonogenic assay. Cells were exposed to 8 mJ/cm^2 UVB exposure in the presence or absence of carnosol. 5×10^3 cells were plated into 6 well plate immediately after treatment and incubated for […]. The error bars present the standard deviation of three sets of independent experiments. *p<0.05 versus control group, **p<0.05 versus UV group at indicated time point.
Immediate after treatment, cells were harvested with 0.25% trypsin-EDTA and counted, and then 5×10^3 cells were plated in 6-well plates. After 6 days, cells were fixed with cold methanol for 10 mM at […] and then stained by 1% crystal violet in 25% methanol for 10 mM. Cells were then rinsed with distilled water and colonies with a size greater than 0.4 mm were counted by Kodak IS in vivo F system equipped with Kodak Molecular Imaging Software (Eastman Kodak).

## CC(C)c1cc2c(c(O)c1O)[C@@]13CCCC(C)(C)[C@@H]1C[C@@H]2OC3=O [carnosol]
[1]; 0.1 μM carnosol
  ROS level post-UVB: not statistically significantly changed
[1]; 0.5 μM carnosol
  ROS level post-UVB: not statistically significantly changed
[1]; 10 μM carnosol
  ROS level post-UVB: about 1.5 fold
[1]; 20 μM carnosol, 20 min to 10 h post-UVB
  ROS level in the irradiated cells: continuously reduces
[1]; 20 μM carnosol, 240 min after UVB
  decrease of ROS level: ~30%
[1]; 20 μM carnosol, 480 min after UVB
  decrease of ROS level: ~30%
[1]; 20 μM carnosol, 720 min after UVB
  decrease of ROS level: ~30%
[1]; 20 μM carnosol
  ROS level post-UVB: ~1.3 fold
[1]; 20 μM carnosol, immediately after UVB treatment
  decrease of ROS level: 20%
[1]; 20 μM carnosol, no UVB, 20 min intervals up to 12 h
  ROS level in untreated cells: did not statistically significant affect
[1]; 30 μM carnosol
  ROS level post-UVB: ~1.3 fold
[1]; carnosol alone 0.1 μM to 30 μM, no UVB (Control), 6 h
  ROS level: no statistic significant effect
NF-κB; 2 h post UVB, UVB alone induced by 20%
  NF-κB activity (DNA binding, EMSA): no statistically significant change
NF-κB; 4 h post UVB
  NF-κB activity induction (EMSA): 2.2 fold
NF-κB; 6 h post UVB
  NF-κB activity induction (EMSA): 1.5 fold
[2]; A431, carnosol and UVB radiation together
  effect of double treatment on reduction of cancer cell survival: synergistic effect
[2]; A431, carnosol combined with 8 mJ/cm^2 UVB, UVB alone about 43%
  colony formation: about 17%
[2]; A431, carnosol treatment alone
  colony formation rate: about 65%
